# Measurements as given in patent US20170260169A1, “INHIBITORS FOR STEROID RESPONSE ELEMENTS AND RNA POLYMERASE II AND RELATED METHODS” (priority 2007, published 2017).
# Entries after “also recorded” stand apart in the source; their conditions may differ. Like-named read-outs stand apart in the source and are kept apart here.
# Legend:
# LNCaP cells = experiment: Cell viability WST-1 assay; type: cell-based; settings: 72 hr incubation; read-out: half maximal inhibitory concentration, viability of LNCaP cells
# Procedure: LNCaP cells were plated in clear bottom 96 well plates at 5,000-7,500 cells per well. The cells were allowed to adhere for 24-36 h before compounds were added in fresh media. Cell viability was determined by the WST-1 assay (Roche) for 77 and 85 after 24 h or 72 h incubation with cells. Cells in cytotoxicity rescue experiments were treated with 85 alone or with 3 μM for 24 h.
# LNCaP cells were plated in clear bottom 96-well plates at 5,000-7,500 cells per well and allowed to adhere for 36-48 h. Compounds were then added in fresh media. Cell metabolic activity was determined by the WST-1 assay (Roche) after 72-h incubation with cells. Quantification was performed on a Perkin Elmer Victor 3 plate reader. Assays were performed in biological triplicates.
# p53 target genes = experiment: Quantitative RT-PCR of p53 target genes in LNCaP cells; type: cell-based
# Procedure: RNA was extracted using RNEasy columns (Qiagen) according to manufacturer's protocols. cDNA was generated from RNA by reverse transcriptase (Transcriptor First Strand cDNA kit, Roche). Quantitative real-time RT-PCR was performed using SYBR Green PCR Master Mix (Applied Biosystems) on an ABI 7300 instrument. mRNA was measured relative to B glucuronidase as an endogenous control.
# The cells were then treated with 1, 3, and 10 μM of 78 for 72 h. Total cellular RNA was extracted using RNEasy columns (Qiagen) following the manufacturer's protocols. Isolated RNA was reverse transcribed with Transcriptor First Strand cDNA kit (Roche). Quantitative real-time PCR was performed using SYBR Green PCR Master Mix (Applied Biosystems) on an ABI 7300 instrument. Amplification of p21, IGFBP3, and GADD45A cDNA was measured relative to β-glucuronidase using previously published primers (24). Experiments were performed in biological replicates.
# LNCaP xenografts = LNCaP xenografts in male NSG mice; type: in vivo; settings: six injections
# Procedure: All mice experiments were conducted under an approved protocol by the Institutional Animal Care and Use Committee of the California Institute of Technology. Male NOD scid gamma (NSG) mice were purchased from The Jackson Laboratory. The animals were individually caged and maintained on a standard light-dark cycle. NSG mice were engrafted with LNCaP cells (2.5 million cells) in a mixture of 1:1 media and matrigel in the left flank. Tumors were grown to ˜100 mm^3 (L×W^2) before beginning treatment with compound or vehicle. Py-Im polyamide 77 was administered once every 3 days in a 5% DMSO:PBS vehicle solution until the experiment endpoint.
# To investigate if polyamide 77 could be detected in peripheral blood after SC injections, 120 nmol of 77 (in 5% DMSO/PBS) was injected into the right flank of four C57BL/6 mice. Blood was collected from anesthetized mice via retroorbital collection at 5 minutes, 4 h, and 12 h after injection, then processed by methods previously described and analyzed by HPLC (35). For measurement of serum PSA (KLK3) and uric acid, blood was collected from anesthetized mice via retroorbital collection at experimental endpoint and serum was separated from blood by centrifugation. Serum PSA (KLK3) was measured by ELISA (R&D systems) according to manufacturer's instructions. Uric acid was measured as described (36).
# Tumors were resected immediately after euthanasia and fixed in neutral buffered formalin. Selected samples were embedded in paraffin, sectioned and stained with hematoxylin and eosin (H&E). Selected sections were assessed by deoxynucleotidyltransferase dUTP nick-end labeling (TUNEL) as described (45).
# Mice experiments were conducted under an approved protocol by the Institutional Animal Care and Use Committee of the California Institute of Technology. Male C57BL6/J mice and male NSG mice were purchased from The Jackson Laboratory. All animals were maintained on a standard light-dark cycle. LNCaP cells (2.5 million cells) were engrafted in a mixture of 1:1 media and matrigel in the left flank of NSG mice. Tumors were allowed grow to ˜200 mm^3 (0.5×L×W^2) before treatment. Py-Im polyamide 78 was administered by SC injection once every 3 d at 1 mg/kg in a 20% (vol/vol) DMSO:Normal saline vehicle solution for 6 injections. Animals were sacrificed two days after the final injection. Animal weight and general health were monitored daily. Fourteen animals were used for each treatment group.
# [1] = Multiple-dose subcutaneous injections, male C57BL/6J mice; type: in vivo; settings: 1 mg/kg SC every 3 days
# Procedure: In addition to single dose injections, the effects of repeated dosing of polyamides 77-80 in mice were examined. In this experiment, 8 week-old male C57BL/6J mice (n=3 per dosing group) were treated with 1 mg/kg of polyamides 77-80 by subcutaneous injection every 3 days, for a cycle of three injections and then sacrificed two days after the final injection (FIG. 31A). As in the single dosing experiments, two mice per group were subjected to histopathology analysis and all blood samples were sent for analysis. […] These mice were promptly euthanized.
# (§1) Serum from treated animals were collected by retroorbital bleeding. […] All samples were sent for analysis at IDEXX-RADIL.
# RPB1 = RPB1 protein ELISA in LNCaP cells; type: cell-based
# Procedure: […] Cells treated with DMSO vehicle and 1 μM doxorubicin for 24 h were used as control. Cellular RBP1 levels were determined by a RPB1 specific ELISA kit (Cusabio Life Sciences) according to manufacturer's instructions. Total cellular p53 protein level was determined with a pan-p53 ELISA kit (Roche) according to manufacturer's instructions. Assays were performed in biological triplicates.
# [2] = Six-injection regimen of 78 in healthy male C57BL/6J mice, serum chemistry and hematology; type: in vivo; settings: SC 1 mg/kg, six injections
# Procedure: To assess the toxicity of the treatment regimen in healthy animals, male C57BL/6J mice were treated with an identical regimen as the tumor-bearing mice and were sacrificed two days after the final injection. Because the liver and kidney were identified as the target organs of toxicity in our previous study, we assessed relevant serum markers for liver and kidney pathology (FIG. 33D). […] To examine if 78 has an effect on circulating blood counts, whole blood was sampled before treatment and at the time of sacrifice.
# as §1
# p53 = p53 protein ELISA in LNCaP cells; type: cell-based; settings: polyamide 10 μM 72 hr; doxorubicin 1 μM 24 hr
# Procedure: Cellular levels of RPB1 and p53 protein in LNCaP cells after treatment with 10 μM 3 for 72 h were determined by ELISA. Cells treated with DMSO vehicle and 1 μM doxorubicin for 24 h were used as control. Cellular RBP1 levels were determined by a RPB1 specific ELISA kit (Cusabio Life Sciences) according to manufacturer's instructions. Total cellular p53 protein level was determined with a pan-p53 ELISA kit (Roche) according to manufacturer's instructions. Assays were performed in biological triplicates.
# [3] = Liver microsomal stability, human; settings: 1 μM, Human, 1 hr at 37° C., 1 mg/ml microsomes
# Procedure: (§2) Briefly, each polyamide was incubated with 1 mg/ml human or mouse microsomes at 37° C. The reaction was incubated in 100 mM KH2PO4, 2 mM NADPH, 3 mM MgCl2 at pH 7.4. Samples were also incubated in the absence of NADPH to detect NADPH-free degradation. After 60 min the samples were mixed with an equal volume of ice cold methanol stop solution. The mixture was allowed to sit on ice for at least 10 min and mixed with an equal volume of water. The samples were then centrifuged to remove the precipitates and the samples were analyzed by LC/MS/MS. Data represents % remaining by comparing with time zero concentration. The experiments were performed in duplicate.
# [4] = Liver microsomal stability, mouse; settings: 1 μM, Mouse, 1 hr at 37° C., 1 mg/ml microsomes
# Procedure: as §2
# [5] = Escalating single dose subcutaneous injections, male C57BL/6J mice (weight, histopathology, serum)
# [6] = human, microsomes, 1 h, 1 μM, pH 7.4
# Procedure: as §2
# [7] = mouse, microsomes, 1 h, 1 μM, pH 7.4
# Procedure: as §2
smiles,measurement,setting,value
"CC(=O)N[C@H](CCNC(=O)c1cc(NC(=O)c2cc(NC(=O)c3cc(NC(=O)c4nccn4C)cn3C)cn2C)cn1C)C(=O)Nc1cn(C)c(C(=O)Nc2cc(C(=O)Nc3cc(C(=O)Nc4cc(C(=O)NCCCN(C)CCCNC(=O)c5cccc(C(=O)O)c5)n(C)c4)n(C)c3)n(C)c2)n1 [Polyamide 78, ImPyPyPy-2-(R)^AcHNγ-ImPyPyPy-NHMe-IPA]",IC50,LNCaP cells,2100 nM
same,induction of p53 target genes,p53 target genes,induced by 78 in a dose-dependent fashion
same,T/C (tumor weight),LNCaP xenografts; SC 1 mg/kg every three days,52.4%
same,weight loss and distress during xenograft treatment,LNCaP xenografts; SC 1 mg/kg,minimal weight loss and no signs of distress
same,liver and kidney histopathology,[1],no histopathologic lesions consistent with toxicity
same,liver and kidney serum markers,[1],no histopathologic lesions consistent with toxicity or alterations in liver and kidney serum markers
same,weight and physical morbidity,[1]; three injections,no loss in weight or physical morbidities
same,RPB1 levels,RPB1; 1 μM for 72 h as printed,reduced RPB1 levels
same,RPB1 protein,"RPB1; polyamide 10 μM 72 hr, doxorubicin 1 μM 24 hr",decreases
same,circulating blood counts,[2],No significant hematologic changes
same,serum markers for liver and kidney pathology,[2],"no elevations in AST, ALT, total bilirubin, creatinine, or BUN"
same,cellular level of p53 protein,p53,increases
same,Mean remaining parent NADPH-free,[3],94.9%
same,Mean remaining parent with NADPH,[3],95.3%
same,Mean remaining parent NADPH-free,[4],100%
same,Mean remaining parent with NADPH,[4],97.3%
same,"tolerability, behavior and morbidity after single SC dose","[5]; 1, 3, 10 mg/kg",no change in behavior and appearance
same,overall toxicity / organ damage,"[5]; single SC 1, 3, 10 mg/kg",no detectable toxicity at any dose level tested; also recorded: no detectable animal toxicity at 10 mg/kg
same,serum kidney markers creatinine and BUN,[5]; single SC dose,no elevation of these markers at the dose levels tested
same,"serum liver markers AST, ALT, total bilirubin",[5]; single SC dose,no elevation of these markers at the dose levels tested
CC(=O)CC(c1ccccc1)c1c(O)c2ccccc2oc1=O (stereo not drawn) [Warfarin],Mean remaining parent NADPH-free,[6],100%
same,Mean remaining parent with NADPH,[6],100%
same,Mean remaining parent NADPH-free,[7],100%
same,Mean remaining parent with NADPH,[7],100%
